From PubChem BioAssay (NCI)
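Cultured in 96-well plates, cells were exposed to test compound for 48 hours across five concentrations. At the GI50, growth is halved. TGI is the concentration that stops growth completely.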

How the values were obtained:
Experiment in all cases: NCI-60 cell line screen, 48 h
[1] = system: DMS 114 small cell lung
[2] = system: SK-OV-3 ovarian
[3] = system: SW-620 colon
[4] = system: RXF 393 renal
[5] = system: XF 498 CNS
[6] = system: HL-60(TB) leukemia
[7] = system: MOLT-4 leukemia
[8] = system: KM20L2 colon
[9] = system: HOP-92 NSCLC
[10] = system: A498 renal
[11] = system: SN12C renal
[12] = system: UACC-257 melanoma
[13] = system: NCI-H226 lung
[14] = system: SNB-19 CNS
[15] = system: IGROV1 ovarian
[16] = system: COLO 205 colon
[17] = system: DLD-1 colon
[18] = system: U251 CNS
[19] = system: NCI-H522 lung
[20] = system: SR leukemia
[21] = system: M19-MEL melanoma
[22] = system: TK-10 renal
[23] = system: SF-268 CNS
[24] = system: HT29 colon
[25] = system: DMS 273 small cell lung
[26] = system: SK-MEL-2 melanoma
[27] = system: UO-31 renal
[28] = system: MALME-3M melanoma
[29] = system: OVCAR-4 ovarian
[30] = system: HCC-2998 colon
[31] = system: EKVX NSCLC
[32] = system: OVCAR-8 ovarian
[33] = system: SK-MEL-28 melanoma
[34] = system: KM12 colon
[35] = system: A549 NSCLC
[36] = system: HCT-15 colon
[37] = system: M14 melanoma
[38] = system: SNB-75 CNS
[39] = system: SF-539 CNS
[40] = system: CAKI-1 renal
[41] = system: HCT-116 colon
[42] = system: UACC-62 melanoma
[43] = system: RPMI-8226 leukemia
[44] = system: K-562 leukemia
[45] = system: SK-MEL-5 melanoma
[46] = system: 786-0 renal
[47] = system: CCRF-CEM leukemia
[48] = system: LOX IMVI melanoma
[49] = system: NCI-H460 lung
[50] = system: OVCAR-5 ovarian
[51] = system: HOP-18 NSCLC
[52] = system: NCI-H23 lung
[53] = system: LXFL 529 NSCLC
[54] = system: OVCAR-3 ovarian
[55] = system: ACHN renal
[56] = system: SNB-78 CNS
[57] = system: SF-295 CNS
[58] = system: HOP-62 NSCLC
[59] = system: RXF-631 renal

SMILES: OCCN1CCN(CC/C=C2/c3ccccc3Sc3ccc(Cl)cc32)CC1
- TGI [1]: 30.5 µM
- TGI [2]: 29.3 µM
- TGI [3]: 24.6 µM
- TGI [4]: 26.5 µM
- TGI [5]: 25.4 µM
- TGI [6]: 16 µM
- TGI [7]: 26.8 µM
- TGI [8]: 5.4 µM
- TGI [9]: 20.9 µM
- TGI [10]: 28.1 µM
- TGI [11]: 26 µM
- TGI [12]: 7.16 µM
- TGI [13]: 28.2 µM
- TGI [14]: 34.9 µM
- TGI [15]: 28.6 µM
- TGI [16]: 23.3 µM
- TGI [17]: 26.4 µM
- TGI [18]: 25.6 µM
- TGI [19]: 30.1 µM
- TGI [20]: 34.3 µM
- TGI [21]: 4.09 µM
- TGI [22]: 28.8 µM
- TGI [23]: 28.3 µM
- TGI [24]: 6.9 µM
- TGI [25]: 18.9 µM
- TGI [26]: 28.3 µM
- TGI [27]: 27.3 µM
- TGI [28]: 13.1 µM
- TGI [29]: 31.5 µM
- TGI [30]: 23.5 µM
- TGI [31]: 31.3 µM
- GI50 [32]: 15.2 µM
- TGI [32]: 29.1 µM
- TGI [33]: 3.38 µM
- TGI [34]: 23.2 µM
- TGI [35]: 29.9 µM
- TGI [36]: 26.2 µM
- TGI [37]: 6.24 µM
- TGI [38]: 12.3 µM
- TGI [39]: 25.7 µM
- TGI [40]: 24.4 µM
- TGI [41]: 21.7 µM
- TGI [42]: 6.78 µM
- TGI [43]: 31.2 µM
- TGI [44]: 8.65 µM
- TGI [45]: 16.5 µM
- GI50 [46]: 13.2 µM
- TGI [46]: 26.7 µM
- TGI [47]: 23.6 µM
- TGI [48]: 21.8 µM
- TGI [49]: 16.3 µM
- TGI [50]: 30.9 µM
- TGI [51]: 24 µM
- TGI [52]: 29.2 µM
- TGI [53]: 17.9 µM
- TGI [54]: 27.9 µM
- TGI [55]: 29.7 µM
- TGI [56]: 30.2 µM
- TGI [57]: 32.6 µM
- TGI [58]: 29.7 µM

SMILES: O=C1NCCS(=O)(=O)N2CCC[C@@H]12
- TGI [1]: > 100 µM
- TGI [2]: > 100 µM
- TGI [3]: > 100 µM
- TGI [4]: > 100 µM
- TGI [6]: > 100 µM
- TGI [7]: > 100 µM
- TGI [8]: > 100 µM
- TGI [9]: > 100 µM
- TGI [10]: > 100 µM
- TGI [11]: > 100 µM
- TGI [12]: > 100 µM
- TGI [13]: > 100 µM
- TGI [14]: > 100 µM
- TGI [15]: > 100 µM
- TGI [16]: > 100 µM
- TGI [17]: > 100 µM
- TGI [18]: > 100 µM
- TGI [19]: > 100 µM
- TGI [20]: > 100 µM
- TGI [21]: > 100 µM
- TGI [22]: > 100 µM
- TGI [23]: > 100 µM
- TGI [24]: > 100 µM
- TGI [27]: > 100 µM
- TGI [28]: > 100 µM
- TGI [29]: > 100 µM
- TGI [30]: > 100 µM
- TGI [31]: > 100 µM
- TGI [32]: > 100 µM
- TGI [33]: > 100 µM
- TGI [34]: > 100 µM
- TGI [35]: > 100 µM
- TGI [59]: > 100 µM
- TGI [36]: > 100 µM
- TGI [37]: > 100 µM
- TGI [38]: > 100 µM
- TGI [39]: > 100 µM
- TGI [40]: > 100 µM
- TGI [41]: > 100 µM
- TGI [42]: > 100 µM
- TGI [43]: > 100 µM
- TGI [44]: > 100 µM
- TGI [45]: > 100 µM
- TGI [46]: > 100 µM
- TGI [47]: > 100 µM
- TGI [48]: > 100 µM
- TGI [49]: > 100 µM
- TGI [50]: > 100 µM
- TGI [51]: > 100 µM
- TGI [52]: > 100 µM
- TGI [53]: > 100 µM
- TGI [54]: > 100 µM
- TGI [55]: > 100 µM
- TGI [56]: > 100 µM
- TGI [57]: > 100 µM
- TGI [58]: > 100 µM

SMILES: O=C1c2ccccc2C(=O)c2[nH]c(Cc3ccc(F)cc3)nc21
- TGI [3]: 38.3 µM
- TGI [4]: 30.2 µM
- TGI [5]: 31.8 µM
- TGI [6]: 55.2 µM
- TGI [7]: 71.2 µM
- TGI [8]: 34.4 µM
- TGI [9]: 74.6 µM
- TGI [11]: 51.3 µM
- TGI [12]: 30.4 µM
- TGI [13]: 45.9 µM
- TGI [14]: 51.3 µM
- TGI [15]: 26.2 µM
- TGI [16]: 41 µM
- TGI [17]: 8.21 µM
- TGI [18]: 47 µM
- TGI [19]: 34.3 µM
- TGI [20]: 55.5 µM
- TGI [21]: 34.2 µM
- TGI [22]: 53.1 µM
- TGI [23]: 66.3 µM
- TGI [24]: 30.3 µM
- TGI [25]: 35.5 µM
- TGI [26]: 29 µM
- TGI [27]: 59.5 µM
- TGI [28]: 29.6 µM
- TGI [29]: 34.9 µM
- TGI [30]: 42.8 µM
- TGI [31]: 39.8 µM
- TGI [32]: 35.3 µM
- TGI [33]: 35 µM
- TGI [34]: 32.9 µM
- TGI [35]: 38.1 µM
- TGI [59]: 44.8 µM
- TGI [36]: 21.6 µM
- TGI [37]: 30.2 µM
- TGI [38]: 38.3 µM
- TGI [39]: 32 µM
- TGI [40]: 50.2 µM
- TGI [41]: 42.3 µM
- TGI [42]: 35.5 µM
- TGI [43]: 95.8 µM
- TGI [44]: > 100 µM
- TGI [46]: 43.8 µM
- TGI [47]: > 100 µM
- TGI [49]: 31.1 µM
- TGI [53]: 88.2 µM
- TGI [54]: 38.2 µM
- TGI [55]: 31.2 µM
- TGI [57]: 31.2 µM
- TGI [58]: 44.3 µM

SMILES: CCc1cccc(C)c1NC(=O)CC1C(=O)Nc2ccccc2S1(=O)=O (stereo not given)
- TGI [1]: 34.1 µM
- TGI [3]: 29.3 µM
- TGI [4]: 40.4 µM
- TGI [5]: 26.2 µM
- TGI [6]: 40.2 µM
- TGI [7]: 36 µM
- TGI [8]: 34.2 µM
- TGI [9]: 31.8 µM
- TGI [10]: 58.3 µM
- TGI [11]: 63.6 µM
- TGI [12]: 82.7 µM
- TGI [13]: > 100 µM
- TGI [14]: 75.5 µM
- TGI [15]: 35.2 µM
- TGI [17]: 40.4 µM
- TGI [18]: 32.5 µM
- TGI [19]: 32.5 µM
- TGI [20]: 23.8 µM
- TGI [21]: 38.9 µM
- TGI [22]: 59.4 µM
- TGI [23]: 39.4 µM
- TGI [24]: 36.4 µM
- TGI [25]: 25 µM
- TGI [26]: 53.5 µM
- TGI [27]: 27.7 µM
- TGI [28]: 33 µM
- TGI [29]: 29.6 µM
- TGI [30]: 30.4 µM
- TGI [31]: 41.9 µM
- TGI [32]: 54.1 µM
- TGI [33]: 48.1 µM
- TGI [35]: 35.2 µM
- TGI [59]: 33 µM
- TGI [36]: 33.8 µM
- TGI [37]: 72.1 µM
- TGI [38]: 31.2 µM
- TGI [39]: 24.6 µM
- TGI [40]: 31.2 µM
- TGI [41]: 35.4 µM
- TGI [42]: 41.1 µM
- TGI [43]: 40.4 µM
- TGI [44]: 14.7 µM
- TGI [45]: 44.4 µM
- TGI [46]: 31.5 µM
- TGI [47]: 41.6 µM
- TGI [48]: 27.3 µM
- TGI [49]: 27.9 µM
- TGI [50]: 56.4 µM
- TGI [52]: 41.1 µM
- TGI [53]: 37 µM
- TGI [54]: 33.5 µM
- TGI [55]: 47.4 µM
- TGI [56]: 53.7 µM
- TGI [57]: 82.1 µM
